# Source: PMC7817688, “Identification of 3-chymotrypsin like protease (3CLPro) inhibitors as potential anti-SARS-CoV-2 agents” (Communications Biology, 2021)
# Several values for one entry are separate records, joined by “and”; a condition that tells them apart may be missing. Equal values may be shown once. Read-outs that look alike come from different tables or passages of the source. Numbered stars: 1 amine (or outer) side, 2 acyl side, 3 side chain; on linkers, the order of the positions; unused ones are H or OH. Bridge positions count the residues as written; N and C are the ends. Square brackets hold non-standard residues; d marks the D form. Peptide text beside a SMILES is read from it. * marks the point of attachment. hTyr(3S-OH,4S-OH,3'-OSO3H) = N[C@H](C(=O)O)[C@H](O)[C@@H](O)c1ccc(O)c(OS(=O)(=O)O)c1; Orn(4R-OH,5R-OH) = O=C([C@H](C[C@@H](O)[C@@H](O)N[*:3])N[*:1])[*:2]; Pro(3S-OH,4S-Me) = C[C@H]1CN[C@H](C(=O)O)[C@H]1O; X1 = CCCCCOc1ccc(-c2cc(-c3ccc(C(=O)*)cc3)no2)cc1; Gln(3R-OH) = NC(=O)C[C@@H](O)[C@H](N)C(=O)O; Hyp = O=C(O)[C@@H]1C[C@@H](O)CN1
# Biological target: SARS-CoV-2 3CLpro enzyme (Severe acute respiratory syndrome coronavirus 2, UniProt P0DTD1)
# Assay: biochemical
# Settings: for percent enzymatic activity, individual values / percent enzymatic activity, AVG: DMSO treated control = 100%, data of Figs. 2-4; for percent enzymatic activity, AVG: mean of 3 values; for IC50: drugs 0 to 100 µM, 50 µM substrate, non-linear four variable fit; for inhibitory effect towards 3CLpro enzymatic activity (in words): in vitro enzymatic assay at the tested doses; for inhibition at 50 µM / inhibition at 100 µM: read-out: inhibition of 3CLpro enzymatic activity
# [1] = dose-dependent study, 0.097656 uM, individual values
# [2] = dose-dependent study, 0.195313 uM, individual values
# [3] = dose-dependent study, 0.390625 uM, individual values
# [4] = dose-dependent study, 0.78125 uM, individual values
# [5] = dose-dependent study, 1.5625 uM, individual values
# [6] = dose-dependent study, 3.125 uM, individual values
# [7] = dose-dependent study, 6.25 uM, individual values
# [8] = dose-dependent study, 12.5 uM, individual values
# [9] = dose-dependent study, 25 uM, individual values
# [10] = dose-dependent study, 50 uM, individual values
# [11] = dose-dependent study, 100 uM, individual values
# [12] = dose-dependent study, 0.097656 uM, individual values, read-out: % activity
# [13] = dose-dependent study, 0.390625 uM, individual values, read-out: % activity
# [14] = dose-dependent study, 0.78125 uM, individual values, read-out: % activity
# [15] = dose-dependent study, 1.5625 uM, individual values, read-out: % activity
# [16] = dose-dependent study, 6.25 uM, individual values, read-out: % activity
# [17] = dose-dependent study, 12.5 uM, individual values, read-out: % activity
# [18] = read-out: IC50 for SARS-CoV-2 3CL protease
compound,measurement,setting,value
COC(=O)N[C@H](C(=O)N[C@@H](Cc1ccccc1)[C@@H](O)CN(Cc1ccc(-c2ccccn2)cc1)NC(=O)[C@@H](NC(=O)OC)C(C)(C)C)C(C)(C)C [Atazanavir],"percent enzymatic activity, individual values",50 µM drug,84.3318% and 88.0184% and 91.2442%
same,"percent enzymatic activity, AVG",50 µM drug,87.8648%
Candicidin,"percent enzymatic activity, individual values",50 µM drug,86.2745% and 80.3922% and 82.3529%
same,"percent enzymatic activity, AVG",50 µM drug,83.0065%
COC(=O)N[C@H](C(=O)N1CCC[C@H]1C(=O)Nc1ccc([C@@H]2CC[C@@H](c3ccc(NC(=O)[C@@H]4CCCN4C(=O)[C@@H](NC(=O)OC)C(C)C)cc3)N2c2ccc(C(C)(C)C)cc2)cc1)C(C)C [Ombitasvir],"percent enzymatic activity, individual values",50 µM drug,28.8321% and 35.4015% and 42.7007%
same,"percent enzymatic activity, AVG",50 µM drug,35.6448%
same,IC50,IC50 for SARS-CoV-2 3CL protease,75.5 µM
same,% activity,[1],102.678% and 100.823%
same,activity at 0.097656 µM,[1],106%
same,% activity,[2],97.7299% and 97.8652%
same,activity at 0.195313 µM,[2],106%
same,% activity,[3],102.06% and 103.288%
same,activity at 0.390625 µM,[3],112%
same,% activity,[4],107.008% and 95.4001%
same,activity at 0.78125 µM,[4],113%
same,% activity,[5],102.06% and 100.823%
same,activity at 1.5625 µM,[5],111%
same,% activity,[6],111.957% and 103.781%
same,activity at 3.125 µM,[6],113%
same,% activity,[7],105.153% and 107.726%
same,activity at 6.25 µM,[7],115%
same,% activity,[8],107.627% and 104.767%
same,activity at 12.5 µM,[8],112%
same,% activity,[9],102.302% and 73.6067% and 103.288%
same,% activity,[10],98.3582% and 67.4213% and 91.9489%
same,% activity,[11],61.2358% and 60.8884%
same,activity at 100 µM,[11],64.3%
same,inhibitory effect towards 3CLpro enzymatic activity (in words),,partial inhibitory effect
same,inhibition at 50 µM,,65%
same,inhibition at 100 µM,,50%
CCOC(=O)c1ccc(OC(=O)CCCCCNC(=N)N)cc1 [Gabexate],"percent enzymatic activity, individual values",50 µM drug,88.0184% and 104.147% and 90.7834%
same,"percent enzymatic activity, AVG",50 µM drug,94.3164%
CCOC(=O)C1=C[C@@H](OC(CC)CC)[C@H](NC(C)=O)[C@@H](N)C1 [Oseltamvir Phosphate],"percent enzymatic activity, individual values",50 µM drug,105.843% and 84.7982% and 96.5585%
same,"percent enzymatic activity, AVG",50 µM drug,95.7333%
"CCCCCOc1ccc(-c2cc(-c3ccc(C(=O)N[C@H]4C[C@@H](O)[C@@H](O)NC(=O)[C@@H]5[C@@H](O)[C@@H](C)CN5C(=O)[C@H]([C@H](O)CC(N)=O)NC(=O)[C@H]([C@H](O)[C@@H](O)c5ccc(O)c(OS(=O)(=O)O)c5)NC(=O)[C@@H]5C[C@@H](O)CN5C(=O)[C@H]([C@@H](C)O)NC4=O)cc3)no2)cc1 [Micafungin] (X1-[Orn(4R-OH,5R-OH)]T[Hyp][hTyr(3S-OH,4S-OH,3'-OSO3H)][Gln(3R-OH)][Pro(3S-OH,4S-Me)]; lactam 1-C)","percent enzymatic activity, individual values",50 µM drug,37.5856% and 41.7364% and 49.3462%
same,"percent enzymatic activity, AVG",50 µM drug,42.8894%
same,% activity,[1],93.428% and 107.627%
same,activity at 0.097656 µM,[12],103%
same,% activity,[2],93.921% and 112.575%
same,activity at 0.195313 µM,"dose-dependent study, 0.195313 uM, individual values, read-out: % activity",95.4%
same,% activity,[3],94.414% and 111.957%
same,activity at 0.390625 µM,[13],94.9%
same,% activity,[4],110.101%
same,activity at 0.78125 µM,[14],101%
same,% activity,[5],99.8373% and 115.049%
same,activity at 1.5625 µM,[15],101%
same,% activity,[6],103.781% and 119.998%
same,activity at 3.125 µM,"dose-dependent study, 3.125 uM, individual values, read-out: % activity",105%
same,% activity,[7],110.101%
same,activity at 6.25 µM,[16],105%
same,% activity,[8],103.915%
same,activity at 12.5 µM,[17],92.9%
same,% activity,[9],86.0326% and 95.2558%
same,activity at 25 µM,[9],79.6%
same,% activity,[10],43.6326% and 50.0419% and 67.4213%
same,% activity,[11],20.9535% and 30.3087%
same,activity at 100 µM,"dose-dependent study, 100 uM, individual values, read-out: % activity",19%
same,IC50,[18],47.6 µM
same,inhibitory effect towards 3CLpro enzymatic activity (in words),,partial inhibitory effect
same,inhibition at 50 µM,50 µM drug,57%
same,inhibition at 100 µM,100 µM drug,~80%
CC(C)OC(=O)[C@H](C)N[P@](=O)(OC[C@H]1O[C@@H](n2ccc(=O)[nH]c2=O)[C@](C)(F)[C@@H]1O)Oc1ccccc1 [Sofosbuvir],"percent enzymatic activity, individual values",50 µM drug,76.4977% and 78.341% and 81.5668%
same,"percent enzymatic activity, AVG",50 µM drug,78.8018%
"CC(C)Nc1cccnc1N1CCN(C(=O)c2cc3cc(NS(C)(=O)=O)ccc3[nH]2)CC1 [Delavirdine (mesylate), Delavirdine]","percent enzymatic activity, individual values",50 µM drug,93.4344% and 97.6243% and 104.328%
same,"percent enzymatic activity, AVG",50 µM drug,98.4623%
Cc1c(O)cccc1C(=O)N[C@@H](CSc1ccccc1)[C@H](O)CN1C[C@H]2CCCC[C@H]2C[C@H]1C(=O)NC(C)(C)C [Nelfinavir],"percent enzymatic activity, individual values","50 µM drug, listed as Nilfinavir",69.1244% and 72.3502% and 70.0461%
same,"percent enzymatic activity, AVG",50 µM drug,70.5069%
Cc1cnc(C(=O)N[C@H]2CCCCC/C=C\[C@@H]3C[C@@]3(C(=O)NS(=O)(=O)C3CC3)NC(=O)[C@@H]3C[C@@H](Oc4nc5ccccc5c5ccccc45)CN3C2=O)cn1 [Paritaprevir],"percent enzymatic activity, individual values",50 µM drug,25.5475% and 31.3869% and 37.2263%
same,"percent enzymatic activity, AVG",50 µM drug,31.3869%
same,% activity,[1],101.809% and 115.049%
same,activity at 0.097656 µM,[12],101%
same,% activity,[2],132.87% and 115.668%
same,% activity,[3],114.628% and 102.678%
same,activity at 0.390625 µM,[13],113%
same,% activity,[4],108.219% and 103.297%
same,activity at 0.78125 µM,[14],108%
same,% activity,[5],121.853%
same,activity at 1.5625 µM,[15],114%
same,% activity,[6],108.712% and 136.698%
same,% activity,[7],112.163% and 121.853%
same,activity at 6.25 µM,[16],112%
same,% activity,[8],103.781% and 112.575%
same,activity at 12.5 µM,[17],102%
same,% activity,[9],89.4838% and 96.4929%
same,activity at 25 µM,[9],91%
same,% activity,[10],58.9163% and 64.3286%
same,activity at 50 µM,[10],61.4%
same,% activity,[11],16.5163% and 15.0372% and 1.856%
same,IC50,[18],73.4 µM
same,inhibitory effect towards 3CLpro enzymatic activity (in words),,partial inhibitory effect
same,inhibition at 50 µM,50 µM drug,70%
same,inhibition at 100 µM,100 µM drug,~80%
COc1cc2c(cc1Cc1cccc(Cl)c1F)c(=O)c(C(=O)O)cn2[C@H](CO)C(C)C [Elvitegravir],"percent enzymatic activity, individual values",50 µM drug,78.3509% and 80.4458% and 91.3395%
same,"percent enzymatic activity, AVG",50 µM drug,83.3787%
